Measurements from the supplement of paper PMC10307832.

Assays:
Experiment in all cases: relative viability (nuclei count vs DMSO), 5 days (fraction); higher = more cells survive
Tivantinib + Dasatinib = compound: O=C1NC(=O)[C@@H](c2cn3c4c(cccc24)CCC3)[C@@H]1c1c[nH]c2ccccc12 [Tivantinib] + Cc1nc(Nc2ncc(C(=O)Nc3c(C)cccc3Cl)s2)cc(N2CCN(CCO)CC2)n1 [Dasatinib] (partner 0.075 µM)
Method in brief: (§1)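 After 5 days of treatment, lung cancer cells in 1536-well plates were fixed and stained in a single step (final 0.05% Triton X-100, 1% formaldehyde, 1 ug/ml Hoechst) and their nuclei counted on 4× images. Treatment had been applied by pin tool the day after seeding as one drug alone or as a fixed anchor-drug dose with five library-drug doses (not always all listed) in √10 steps. Relative viability is the nuclei count of treated wells divided by that of vehicle wells, and values are medians of duplicate plates.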

Crenolanib + OSI-027 = compound: CC1(COc2ccc3c(c2)ncn3-c2ccc3cccc(N4CCC(N)CC4)c3n2)COC1 [Crenolanib] + COc1cccc2cc(-c3nc([C@H]4CC[C@H](C(=O)O)CC4)n4ncnc(N)c34)[nH]c12 [OSI-027] (partner 0.5 µM)
Method in brief: as §1

Crenolanib + Pictilisib = compound: CC1(COc2ccc3c(c2)ncn3-c2ccc3cccc(N4CCC(N)CC4)c3n2)COC1 [Crenolanib] + CS(=O)(=O)N1CCN(Cc2cc3nc(-c4cccc5[nH]ncc45)nc(N4CCOCC4)c3s2)CC1 [Pictilisib] (partner 1 µM)
Method in brief: as §1

Tivantinib + Lapatinib = compound: O=C1NC(=O)[C@@H](c2cn3c4c(cccc24)CCC3)[C@@H]1c1c[nH]c2ccccc12 [Tivantinib] + CS(=O)(=O)CCNCc1ccc(-c2ccc3ncnc(Nc4ccc(OCc5cccc(F)c5)c(Cl)c4)c3c2)o1 [Lapatinib] (partner 2 µM)
Method in brief: as §1

Cell Line	relative viability (Tivantinib + Dasatinib; first compound 0.01 µM)	relative viability (Tivantinib + Dasatinib; first compound 0.03162 µM)	relative viability (Tivantinib + Dasatinib; first compound 0.1 µM)	relative viability (Tivantinib + Dasatinib; first compound 0.3162 µM)	relative viability (Crenolanib + OSI-027; first compound 0.01 µM)	relative viability (Crenolanib + OSI-027; first compound 0.03162 µM)	relative viability (Crenolanib + OSI-027; first compound 0.1 µM)	relative viability (Crenolanib + OSI-027; first compound 0.3162 µM)	relative viability (Crenolanib + OSI-027; first compound 1 µM)	relative viability (Crenolanib + Pictilisib; first compound 0.01 µM)	relative viability (Crenolanib + Pictilisib; first compound 0.03162 µM)	relative viability (Crenolanib + Pictilisib; first compound 0.1 µM)	relative viability (Crenolanib + Pictilisib; first compound 0.3162 µM)	relative viability (Crenolanib + Pictilisib; first compound 1 µM)	relative viability (Tivantinib + Lapatinib; first compound 0.01 µM)	relative viability (Tivantinib + Lapatinib; first compound 0.03162 µM)	relative viability (Tivantinib + Lapatinib; first compound 0.1 µM)	relative viability (Tivantinib + Lapatinib; first compound 0.3162 µM)
NCI-H522	0.902	0.712	0.831	0.864	0.936	0.708	0.728	0.655	0.72	–	–	–	–	–	–	–	–	–
HCC-366	0.629	0.594	0.495	0.681	0.978	0.861	0.837	0.893	0.75	0.182	0.164	0.132	0.143	0.137	0.89	1.03	0.99	1.03
A-427	0.677	0.731	0.712	0.686	0.519	0.54	0.421	0.48	0.431	0.747	0.674	0.642	0.582	0.651	1	1.12	0.989	1.12
NCI-H23	0.876	0.809	0.699	0.782	0.689	0.649	0.594	0.783	0.351	0.482	0.484	0.399	0.487	0.351	1.05	1.22	1.03	1.18
NCI-H1755	0.482	0.437	0.401	0.39	0.701	0.797	0.696	0.708	0.653	0.423	0.408	0.397	0.399	0.393	1.07	1.02	0.983	1.15
EPLC-272H	0.409	0.343	0.293	0.176	0.315	0.288	0.249	0.296	0.329	–	0.327	0.318	0.255	0.338	1.08	0.711	0.846	0.383
PC-3 [JPC-3]	0.962	1.02	0.988	0.585	0.804	0.725	0.803	0.792	0.719	0.736	0.635	0.746	0.695	0.703	0.433	0.546	0.424	0.486
NCI-H1975	0.357	0.372	0.276	0.281	0.717	0.792	0.668	0.682	0.778	0.271	0.307	0.247	0.283	0.214	0.943	0.863	0.795	1.1
NCI-H1703	–	–	–	–	–	–	–	–	–	0.237	0.238	0.212	0.209	0.228	1.3	0.94	1.06	1.06
HCC-44	–	–	–	–	0.498	0.496	0.611	0.519	0.434	0.672	0.649	0.575	0.571	0.492	1.02	1.04	0.998	1
SK-MES-1	0.521	0.386	0.309	0.186	0.598	0.657	0.508	0.581	0.599	0.337	0.33	0.375	0.385	0.377	0.441	0.426	0.387	0.417
NCI-H727	0.529	0.344	0.306	0.275	0.782	0.649	0.731	0.614	0.431	0.491	0.634	0.342	0.473	0.418	0.824	0.689	0.802	–
RERF-LC-KJ	0.873	0.895	0.757	0.585	0.583	0.582	0.574	0.648	0.448	0.548	0.591	0.538	0.621	0.687	0.911	0.9	0.872	0.759
NCI-H1623	0.464	0.424	0.494	–	0.434	0.405	0.418	0.437	0.387	–	–	–	–	–	–	–	–	–
Calu-6	–	–	–	–	–	–	–	–	–	1.04	0.91	0.978	1.15	0.968	1.08	1.02	1.02	0.965
LCLC-103H	0.424	0.428	0.429	0.436	0.443	0.507	0.397	0.466	0.384	0.64	0.58	0.596	0.58	0.565	–	–	–	–
CAL-12T	0.479	0.499	0.403	0.238	0.844	0.634	0.643	0.712	0.693	0.45	0.407	0.519	0.454	0.44	0.723	0.62	0.644	0.424
SK-LU-1	0.186	0.178	0.173	0.169	0.386	0.385	0.218	0.372	0.349	0.609	0.494	0.432	0.62	0.611	1.06	0.856	0.835	0.855

Cell Line	relative viability (Tivantinib + Dasatinib; first compound 0.01 µM)	relative viability (Tivantinib + Dasatinib; first compound 0.03162 µM)	relative viability (Tivantinib + Dasatinib; first compound 0.1 µM)	relative viability (Tivantinib + Dasatinib; first compound 0.3162 µM)	relative viability (Crenolanib + OSI-027; first compound 0.01 µM)	relative viability (Crenolanib + OSI-027; first compound 0.03162 µM)	relative viability (Crenolanib + OSI-027; first compound 0.1 µM)	relative viability (Crenolanib + OSI-027; first compound 0.3162 µM)	relative viability (Crenolanib + OSI-027; first compound 1 µM)	relative viability (Crenolanib + Pictilisib; first compound 0.01 µM)	relative viability (Crenolanib + Pictilisib; first compound 0.03162 µM)	relative viability (Crenolanib + Pictilisib; first compound 0.1 µM)	relative viability (Crenolanib + Pictilisib; first compound 0.3162 µM)	relative viability (Crenolanib + Pictilisib; first compound 1 µM)	relative viability (Tivantinib + Lapatinib; first compound 0.01 µM)	relative viability (Tivantinib + Lapatinib; first compound 0.03162 µM)	relative viability (Tivantinib + Lapatinib; first compound 0.1 µM)	relative viability (Tivantinib + Lapatinib; first compound 0.3162 µM)
NCI-H1651	0.386	0.354	0.391	0.475	0.77	0.668	0.715	0.674	0.702	0.568	0.511	0.52	0.548	0.502	0.866	0.691	0.799	0.929
BEN	0.293	0.308	0.382	0.359	0.302	0.339	0.305	0.321	0.314	0.664	0.574	0.51	0.522	0.609	0.623	0.617	0.591	0.691
EMC-BAC-2	0.35	0.307	0.183	0.343	0.438	0.376	0.411	0.424	0.398	0.552	0.523	0.492	0.578	0.495	1	0.852	0.867	0.881
LXF-289	0.302	0.261	0.19	0.175	0.844	0.764	0.752	0.786	0.706	0.761	0.666	0.733	0.916	0.755	0.925	0.861	0.858	0.968
ABC-1	0.629	0.742	0.566	0.516	0.526	0.536	0.522	0.531	0.45	0.837	0.63	0.83	0.692	0.686	–	1.13	1.17	0.869
NCI-H2170	0.659	0.469	0.558	–	0.82	0.744	0.706	0.828	0.669	0.376	0.296	0.32	0.272	0.305	0.157	0.252	0.277	–
NCI-H1355	0.666	0.668	0.675	0.564	0.491	0.382	0.409	0.417	0.35	0.459	0.48	0.436	0.402	0.389	1.04	0.928	0.899	1.09
EBC-1	–	–	–	–	–	–	–	–	–	0.469	0.423	0.333	0.357	0.422	0.205	0.248	0.194	0.201
NCI-H2405	0.213	0.213	0.218	0.169	0.672	0.64	–	0.671	0.655	0.473	0.417	0.285	0.347	0.375	1.11	1.13	1.06	1.08
NCI-H2009	0.381	0.255	0.301	0.285	0.766	0.636	0.623	0.688	0.581	0.854	0.803	0.738	0.708	0.532	0.917	0.595	0.914	0.958
NCI-H441	0.801	0.555	0.356	0.433	0.929	0.6	0.507	0.539	0.463	0.497	0.502	0.483	0.527	0.56	–	–	–	–
NCI-H2342	0.31	0.296	0.322	0.31	0.704	0.599	0.592	0.726	0.594	–	–	–	–	–	–	–	–	–
ChaGo-K-1	0.584	0.604	0.612	0.564	0.659	0.634	0.572	0.631	0.594	0.419	0.627	0.736	0.562	0.7	–	–	–	–
A549	–	–	–	–	–	–	–	–	–	0.608	0.545	0.554	0.689	0.506	1	1.02	0.911	0.935
NCI-H1299	–	–	–	–	–	–	–	–	–	0.793	0.825	0.657	0.878	0.795	0.967	0.952	0.988	0.924
SW 900	0.582	0.735	0.467	0.611	0.677	0.575	0.46	0.657	0.342	–	–	–	–	–	–	–	–	–
IA-LM	–	–	–	–	–	–	–	–	–	0.331	0.305	0.314	0.64	0.522	0.871	0.882	0.669	0.771
NCI-H1648	–	–	–	–	0.245	0.271	0.247	0.26	0.251	–	–	–	–	–	–	–	–	–
